# Measurements from publication PMC8698657, “Absorption and Transport Characteristics and Mechanisms of Carnosic Acid” (Biology, 2021).
# Where “and” joins values, the source holds several entries; their conditions need not be identical. Equal values may be shown once. Read-outs that look alike come from different tables or passages of the source.
# Tests used:
# [1] = Tissue distribution of CA in mice by HPLC after oral gavage; format: in vivo; details: 50 mg/kg/daily oral gavage 7 days, 4 h after last gavage
# From the text: (§1) The animal experiment protocol was approved by the Institutional Animal Care and Use Committee of Guangzhou Medical University (#GY2020-067, 30 July 2020). Male ICR mice aged 5–6 weeks were kept in a specific-pathogen-free environment with 12-h light/dark cycles. […] Both groups were allowed to eat and drink ad libitum. Four hours after the last gavage, the mice were anesthetized, and their eyeballs were removed for blood collection. They were sacrificed and immediately dissected in the supine position. Serum, major organs (heart, liver, lung, stomach, spleen, kidney, small intestine, cecum, and colon), and the contents of the stomach, small intestine, cecum, and colon were collected, weighed, and stored at −80 °C.
# Tissue samples and the contents of the digestive tract were homogenized in ultrapure water at 55 Hz for 8 min. Tissue/content homogenate (1 mL) or serum (100 μL) was mixed with 1 mL of 50% methanol, and the mixture was vortexed for 2 min. The mixture was extracted with ethyl acetate three times (6, 3, and 3 mL of ethyl acetate) and vortexed again for 2 min. The sample was centrifuged at 5000 rpm/min at 4 °C for 15 min, and the upper organic phase was dried under vacuum. Then, it was dissolved in 5% phosphoric acid methanol solution and filtered through a 0.22 μm microporous membrane. Concentrations of CA in serum, tissue, and content samples were determined using HPLC. CA standard was added to all samples, and the recovery rate was calculated. The chromatographic conditions for HPLC analysis were as follows: C18 chromatographic column: 5 μm, 150 × 4.6 mm; column temperature: 25 °C; mobile phase: methanol/0.1% phosphoric acid solution at 85%/15%; flow rate: 1.0 mL/min; detection wavelength: 230 nm; injection volume: 10 μL.
# [2] = Body weight, organ weights and appearance of CA-fed mice; format: in vivo; details: 50 mg/kg/daily oral gavage
# From the text: as §1
# [3] = Effect of verapamil, PEG 400 and EDTA on trans-enterocyte transport of CA; format: in vitro ADME, human; details: human, read-out: Papp AP to BL; for Papp A→B at 50 μM / Papp A→B at 75 μM / Papp A→B at 100 μM: Average of 0.5-3.0 h
# Procedure: CA was dissolved in HBSS solution at 50, 75, and 100 μM. The HBSS solution containing CA combined with 0.5% Tween 80, 5 mmol/L EDTA or 5% PEG 400 was prepared. The cumulative migration (Qr), apparent permeability coefficient (Papp), and the Papp value of bi-direction transport of CA were calculated according to formulas.
# The 0.5 mL HBSS solution containing CA (50, 75, and 100 μM) combined with 100 μmoL/L verapamil, 5% PEG 400, or 5 mmol/L EDTA was added to the AP side of the Transwell plate, and 1.5 mL HBSS solution was added to the BL side. The effect of verapamil, Tween 80, PEG 400, and EDTA on the trans-enterocyte of CA was investigated according to the method described above. The TEER value of each Transwell chamber was measured.
# The cryopreserved Transwell samples were transferred to a 15 mL centrifuge tube, and any remaining liquid was fully washed using 1 mL of 50% methanol solution which was also transferred to the 15 mL centrifuge tube. The mixture was vortexed for 1 min, and 6 mL of ethyl acetate solution was added to the tube and vortexed for another 2 min. The mixture was centrifuged at 6000 rpm/min at 4 °C for 10 min. The supernatant was dried under vacuum, dissolved in 5% phosphoric acid methanol solution, and filtered through a 0.22 μm microporous membrane. The concentration of CA was determined by HPLC as described above.
# [4] = cited from earlier work
# [5] = Caco-2, CA 50 μM, + 5 mmoL/L EDTA
# [6] = Caco-2, CA 75 μM, + 5 mmoL/L EDTA
# [7] = Caco-2, CA 100 μM, + 5% PEG 400
# [8] = Caco-2, CA 100 μM, + 5 mmoL/L EDTA
# [9] = Caco-2, with verapamil 100 μmol/L, CA 50 μM, + 100 μmoL/L verapamil
# [10] = Caco-2, with verapamil 100 μmol/L, CA 75 μM, + 100 μmoL/L verapamil
# [11] = Caco-2, with verapamil 100 μmol/L, CA 100 μM, + 100 μmoL/L verapamil
# [12] = Caco-2, with verapamil 100 μmoL/L, CA 75 μM, + 100 μmoL/L verapamil
compound,measurement,setting,value
"CC(C)c1cc2c(c(O)c1O)[C@@]1(C(=O)O)CCCC(C)(C)[C@@H]1CC2 [CA, Carnosic acid]",Concentration of CA in Cecal content,[1],0.15 nmol/g or mL and 0.15 ± 0.00 nmol/g or mL
same,Concentration of CA in Cecum,[1],2965.1 nmol/g or mL and 2965.10 ± 3.31 nmol/g or mL
same,Concentration of CA in Colon,[1],179.4 nmol/g or mL and 179.43 ± 0.26 nmol/g or mL
same,Concentration of CA in Colonic content,[1],74.54 nmol/g or mL and 74.54 ± 0.21 nmol/g or mL
same,Concentration of CA in Gastric content,[1],1.08 nmol/g or mL and 1.08 ± 0.00 nmol/g or mL
same,Concentration of CA in Heart,[1],0.75 ± 0.00 nmol/g or mL
same,Concentration of CA in Kidney,[1],0.66 ± 0.02 nmol/g or mL
same,Concentration of CA in Liver,[1],10.56 ± 0.01 nmol/g or mL
same,Concentration of CA in Lung,[1],1.68 ± 0.00 nmol/g or mL
same,Concentration of CA in Serum,[1],15.22 ± 0.02 nmol/g or mL
same,Concentration of CA in Small intestine,[1],1.87 nmol/g or mL and 1.87 ± 0.00 nmol/g or mL
same,Concentration of CA in Small intestine content,[1],13.93 nmol/g or mL and 13.93 ± 0.01 nmol/g or mL
same,Concentration of CA in Spleen,[1],13.42 ± 0.01 nmol/g or mL
same,Concentration of CA in Stomach,[1],35.98 ± 0.09 nmol/g or mL
same,concentration at 4 h,"[1]; male, ICR, mouse, serum, read-out: CA detected in serum",15.2 µM
same,adverse effects,[2],not associated with noticeable adverse effects
same,"body weight and weights of liver and spleen, CA-fed vs control mice",[2],no significant difference
same,Body Weight,[2]; week 1,33.2 ± 0.9 g
same,Body Weight,[2]; week 2,34.8 ± 2.5 g
same,Body Weight,[2]; week 3,37.1 ± 1.8 g
same,Body Weight,[2]; week 4,38.9 ± 2.4 g
same,Body Weight,[2]; week 5,41.2 ± 3.1 g
same,"Papp A→B at 0.5 h, 50 μM","[3]; Caco-2, CA 50 μM, + 5% PEG 400",3.76 ± 0.17 ×10⁻⁶ cm/s
same,"Papp A→B at 0.5 h, 50 μM",[3]; [5],0.5 ± 0.01 ×10⁻⁶ cm/s
same,"Papp A→B at 1 h, 50 μM","[3]; Caco-2, CA 50 μM, + 5% PEG 400",3.96 ± 0.1 ×10⁻⁶ cm/s
same,"Papp A→B at 1 h, 50 μM",[3]; [5],0.24 ± 0.08 ×10⁻⁶ cm/s
same,"Papp A→B at 1.5 h, 50 μM","[3]; Caco-2, CA 50 μM, + 5% PEG 400",2.35 ± 0.01 ×10⁻⁶ cm/s
same,"Papp A→B at 1.5 h, 50 μM",[3]; [5],0.62 ± 0.02 ×10⁻⁶ cm/s
same,"Papp A→B at 2 h, 50 μM","[3]; Caco-2, CA 50 μM, + 5% PEG 400",1.86 ± 0.35 ×10⁻⁶ cm/s
same,"Papp A→B at 2 h, 50 μM",[3]; [5],0.92 ×10⁻⁶ cm/s
same,"Papp A→B at 2.5 h, 50 μM","[3]; Caco-2, CA 50 μM, + 5% PEG 400",1.89 ± 0.04 ×10⁻⁶ cm/s
same,"Papp A→B at 2.5 h, 50 μM",[3]; [5],0.95 ± 0.02 ×10⁻⁶ cm/s
same,"Papp A→B at 3 h, 50 μM","[3]; Caco-2, CA 50 μM, + 5% PEG 400",2.34 ± 0.01 ×10⁻⁶ cm/s
same,"Papp A→B at 3 h, 50 μM",[3]; [5],1.49 ± 0.02 ×10⁻⁶ cm/s
same,Papp A→B at 50 μM,"[3]; Caco-2, CA 50 μM, + 5% PEG 400",2.69 ± 0.04 ×10⁻⁶ cm/s
same,Papp A→B at 50 μM,[3]; [5],0.79 ± 0.03 ×10⁻⁶ cm/s
same,"Papp A→B at 0.5 h, 75 μM","[3]; Caco-2, CA 75 μM, + 5% PEG 400",3.9 ± 0.1 ×10⁻⁶ cm/s
same,"Papp A→B at 0.5 h, 75 μM",[3]; [6],0.92 ± 0.08 ×10⁻⁶ cm/s
same,"Papp A→B at 1 h, 75 μM","[3]; Caco-2, CA 75 μM, + 5% PEG 400",2.99 ± 0.09 ×10⁻⁶ cm/s
same,"Papp A→B at 1 h, 75 μM",[3]; [6],1.9 ± 0.08 ×10⁻⁶ cm/s
same,"Papp A→B at 1.5 h, 75 μM","[3]; Caco-2, CA 75 μM, + 5% PEG 400",2.72 ± 0.46 ×10⁻⁶ cm/s
same,"Papp A→B at 1.5 h, 75 μM",[3]; [6],1.94 ± 0.07 ×10⁻⁶ cm/s
same,"Papp A→B at 2 h, 75 μM","[3]; Caco-2, CA 75 μM, + 5% PEG 400",2.35 ± 0.1 ×10⁻⁶ cm/s
same,"Papp A→B at 2 h, 75 μM",[3]; [6],2.08 ± 0.03 ×10⁻⁶ cm/s
same,"Papp A→B at 2.5 h, 75 μM","[3]; Caco-2, CA 75 μM, + 5% PEG 400",1.52 ± 0.06 ×10⁻⁶ cm/s
same,"Papp A→B at 2.5 h, 75 μM",[3]; [6],1.28 ± 0.1 ×10⁻⁶ cm/s
same,"Papp A→B at 3 h, 75 μM","[3]; Caco-2, CA 75 μM, + 5% PEG 400",1.19 ± 0.06 ×10⁻⁶ cm/s
same,"Papp A→B at 3 h, 75 μM",[3]; [6],0.57 ± 0.01 ×10⁻⁶ cm/s
same,Papp A→B at 75 μM,"[3]; Caco-2, CA 75 μM, + 5% PEG 400",1.45 ± 0.08 ×10⁻⁶ cm/s
same,Papp A→B at 75 μM,[3]; [6],1.45 ± 0.05 ×10⁻⁶ cm/s
same,"Papp A→B at 0.5 h, 100 μM",[3]; [7],3.21 ± 0.47 ×10⁻⁶ cm/s
same,"Papp A→B at 0.5 h, 100 μM",[3]; [8],0.38 ×10⁻⁶ cm/s
same,"Papp A→B at 1 h, 100 μM",[3]; [7],3.59 ± 0.1 ×10⁻⁶ cm/s
same,"Papp A→B at 1 h, 100 μM",[3]; [8],2.25 ± 0.09 ×10⁻⁶ cm/s
same,"Papp A→B at 1.5 h, 100 μM",[3]; [7],2.89 ± 0.05 ×10⁻⁶ cm/s
same,"Papp A→B at 1.5 h, 100 μM",[3]; [8],1.96 ± 0.07 ×10⁻⁶ cm/s
same,"Papp A→B at 2 h, 100 μM",[3]; [7],2.25 ± 0.02 ×10⁻⁶ cm/s
same,"Papp A→B at 2 h, 100 μM",[3]; [8],3.01 ± 0.03 ×10⁻⁶ cm/s
same,"Papp A→B at 2.5 h, 100 μM",[3]; [7],2.44 ± 0.01 ×10⁻⁶ cm/s
same,"Papp A→B at 2.5 h, 100 μM",[3]; [8],1.82 ± 0.08 ×10⁻⁶ cm/s
same,"Papp A→B at 3 h, 100 μM",[3]; [7],2.14 ± 0.02 ×10⁻⁶ cm/s
same,"Papp A→B at 3 h, 100 μM",[3]; [8],1.56 ± 0.07 ×10⁻⁶ cm/s
same,Papp A→B at 100 μM,[3]; [7],2.76 ± 0.07 ×10⁻⁶ cm/s
same,Papp A→B at 100 μM,[3]; [8],1.83 ± 0.05 ×10⁻⁶ cm/s
same,"Papp A→B at 0.5 h, 50 μM",[3]; [9],1.98 ± 0.06 ×10⁻⁶ cm/s
same,"Papp A→B at 1 h, 50 μM",[3]; [9],1.89 ± 0.09 ×10⁻⁶ cm/s
same,"Papp A→B at 1.5 h, 50 μM",[3]; [9],1.84 ± 0.06 ×10⁻⁶ cm/s
same,"Papp A→B at 2 h, 50 μM",[3]; [9],2.08 ± 0.1 ×10⁻⁶ cm/s
same,"Papp A→B at 2.5 h, 50 μM",[3]; [9],0.95 ± 0.03 ×10⁻⁶ cm/s
same,"Papp A→B at 3 h, 50 μM",[3]; [9],1.37 ± 0.09 ×10⁻⁶ cm/s
same,"Papp A→B at 3 h, 75 μM",[3]; [10],0.69 ± 0.01 ×10⁻⁶ cm/s
same,Papp A→B at 75 μM,[3]; [10],1.53 ± 0.04 ×10⁻⁶ cm/s
same,"Papp A→B at 0.5 h, 100 μM",[3]; [11],1.26 ± 0.02 ×10⁻⁶ cm/s
same,"Papp A→B at 1 h, 100 μM",[3]; [11],1.7 ± 0.01 ×10⁻⁶ cm/s
same,"Papp A→B at 1.5 h, 100 μM",[3]; [11],2.99 ± 0.03 ×10⁻⁶ cm/s
same,"Papp A→B at 2 h, 100 μM",[3]; [11],1.24 ± 0.02 ×10⁻⁶ cm/s
same,"Papp A→B at 2.5 h, 100 μM",[3]; [11],0.95 ± 0.05 ×10⁻⁶ cm/s
same,"Papp A→B at 3 h, 100 μM",[3]; [11],1.09 ± 0.02 ×10⁻⁶ cm/s
same,Papp A→B at 100 μM,[3]; [11],1.53 ± 0.07 ×10⁻⁶ cm/s
same,Papp A→B at 50 μM,"[3]; Caco-2, with verapamil 100 μmoL/L, CA 50 μM, + 100 μmoL/L verapamil",1.5 ± 0.02 ×10⁻⁶ cm/s
same,"Papp A→B at 0.5 h, 75 μM",[3]; [12],1.12 ± 0.01 ×10⁻⁶ cm/s
same,"Papp A→B at 1 h, 75 μM",[3]; [12],1.32 ± 0.01 ×10⁻⁶ cm/s
same,"Papp A→B at 1.5 h, 75 μM",[3]; [12],0.85 ± 0.03 ×10⁻⁶ cm/s
same,"Papp A→B at 2 h, 75 μM",[3]; [12],1.94 ± 0.06 ×10⁻⁶ cm/s
same,"Papp A→B at 2.5 h, 75 μM",[3]; [12],0.87 ± 0.1 ×10⁻⁶ cm/s
same,toxicity of orally administered CA,[4]; 64.3 and 90 mg/kg oral,nontoxic
same,circulating concentration,"[4]; rats, 4 h after oral gavage",0.39 µg/mL
same,main elimination route,"[4]; rats, oral 64.3 ± 5.8 mg/kg",fecal excretion
same,overall bioavailability,"[4]; rats, oral",40–65%
